# Earlier results, collected in patent publication US20080166695A1, “Solution for the storage and perfusion of organs awaiting transplantation” (Sigma-Tau Industrie Farmaceutiche Riunite S.p.A., priority 2001, published 2008).
# Tested on: isolated rabbit heart
# Details: isolated rabbit heart perfused with whole blood with L-carnitine added
compound,measurement,value
C[N+](C)(C)C[C@H](O)CC(=O)[O-] [L-carnitine],recovery of cardiac functions,protective effect
